Data taken from patent publication US20190274290A1, “GENETICALLY MODIFIED MOUSE MODEL FOR HUMAN HEPATOCYTE XENOTRANSPLANTATION” (The Jackson Laboratory, priority 2016, published 2019).

Assays:
NSG-PiZ mice [1] = assay: Human hepatocyte engraftment in NSG-PiZ mice, serum human albumin ELISA; format: in vivo, mouse; settings: for human hepatocyte engraftment (serum human albumin), comparison of groups: two doses of 50 mg/kg intraperitoneal MCT 14 and 7 days before engraftment, 50 mg/kg
Protocol: Human albumin levels were evaluated post-engraftment by using the human Albumin ELISA quantitation set (Bethyl Labs) as described by the manufacturer. For all assays, after incubation with the HRP-conjugated antibody, 3,3′,5,5′-tetramethylbenzidine (TMB) peroxidase substrate (KPL) was applied, and the reactions were stopped by adding 2 […] (Fisher Scientific) after 15-30 min. Plates were read at […] on a VersaMax microplate reader (Molecular Devices).
Animals were pre-treated with 50 mg/kg MCT (Oakwood Chemical) intraperitoneally 7 days or 14 and 7 days prior to engraftment or treated at the time of engraftment with 1 μg purified NA/LE hamster anti-mouse CD95 antibody (first apoptosis signal [FAS], BD PharMingen) intravenously.
To investigate additional methods for increased human hepatocyte engraftment, two approaches used in the liver xenograft field were tested: monocrotaline (MCT) and a mouse-specific anti-Fas antigen (CD95) antibody. MCT is a pyrrolizidine plant alkaloid with known endothelial toxicity in the lung, liver, and kidney. […] The anti-CD95 antibody recognizes mouse Fas and leads to cytolytic activity of cells expressing mouse Fas by inducing apoptosis of mouse hepatocytes and other cells.
(§1) All recipient mice were males, age 6-10 weeks, and they were anesthetized by isoflurane inhalation in a closed ventilation chamber. For intrasplenic injection, an incision was made on mouse left paralumbar fossa in order to expose the spleen. […] The exposed spleen was returned to the abdominal cavity and the incision was closed with an absorbable suture (4-0 Vicryl). Vet Bond was applied topically to seal the skin incision. For partial hepatectomy, median-line incision was made to expose the liver. The median lobe of the liver and the left lateral lobe were seemly tied off with 4-0 silk Blake braided suture and excised. Two-thirds of the total liver was removed by partial hepatectomy. The remaining liver was gently returned to the abdominal cavity. […]

NSG-PiZ mice [2] = assay: Percentage of human hepatocytes in engrafted mouse liver (flow cytometry, anti-HLA-ABC / CD324); format: in vivo; settings: MCT-treated NSG-PiZ mice; flow cytometry with anti-HLA antibody
Protocol: After dissociation, cells were stained on ice for 30 minutes with anti-mouse/human CD324 (Biolegend) and anti-HLA-ABC (BD Biosciences) antibodies to determine human hepatocyte percentage. Cells were then washed twice with 1×PBS and resuspended in 1×PBS supplemented with 0.5% FHS and 2 mM EDTA. Cells were acquired using FACS-LSRII flow cytometer (BD Biosciences) and analyzed with FlowJo software (version 10.1; Tree Star Inc.).
as §1, with “cavity. Finally, the opposing sections of the abdominal wall were aligned at the ventral midline, and an absorbable suture (4-0 Vicryl) was applied to close the incision.” for “cavity.”

Structure (SMILES): C[C@H]1C(=O)O[C@@H]2CCN3CC=C(COC(=O)[C@](C)(O)[C@]1(C)O)[C@H]23 [MCT, monocrotaline]
- human hepatocyte engraftment (serum human albumin) (NSG-PiZ mice [1]; MCT 50 mg/kg before engraftment or 1 μg anti-mouse CD95 antibody at engraftment, versus intrasplenic engraftment alone): significantly increased
- human hepatocyte engraftment (serum human albumin), comparison of groups (NSG-PiZ mice [1]): greatest engraftment
- human hepatocyte engraftment (serum human albumin), comparison of groups (NSG-PiZ mice [1]; listed as monocrotaline): greatest serum human albumin concentrations
- hepatocytes of human origin (NSG-PiZ mice [2]): at least 25%
